In patent US7176192B2, “Method for treating patients for radiation exposure” (BioNumerik Pharmaceuticals, Inc., priority 2001, dated 2007):

Legend:
mice = experiment: intravenous administration of dimesna to mice, tolerability; format: in vivo; conditions: intravenously, doses higher than 3750 mg/kg
Description: (§1) Mesna and dimesna, as well as some analogues of these compounds, have excellent toxicity profiles in mammalian species. However, it is clear from our earlier discoveries that dimesna has a much lower degree of toxicity relative to mesna; this lower degree of toxicity for dimesna imparts additional therapeutic value to this invention for radiation therapy since it is contemplated that chronic or high doses of dimesna will be needed in some circumstances in order to provide adequate prophylaxis for radiation toxicity as well as for treatment of acute or chronic radiation toxicity.

dogs = experiment: intravenous administration of dimesna to dogs, tolerability; format: in vivo; conditions: intravenously, doses higher than 3750 mg/kg
Description: as §1

humans = experiment: administration of dimesna to humans, tolerability; format: in vivo; conditions: doses exceeding 15 g/m^2
Description: as §1

[1] = accepted value, species not stated; cited from earlier work

With O=S(=O)([O-])CCSSCCS(=O)(=O)[O-].[Na+].[Na+] [Dimesna, disodium 2,2′-dithiobis ethane sulfonate] the adverse effects (mice) was “no adverse effects”, the adverse effects (dogs) was “no adverse effects” and the adverse effects (humans) was “no major adverse effects”.
In the case of [Cl-].[Na+] [common table salt], the “oral LD50” value [1] is listed as 3750 mg/kg.
